According to US20260308158A1, “TARGETING RNAS ASSOCIATED WITH TAUOPATHIES WITH SMALL MOLECULES” (University of Florida Research Foundation, Incorporated, priority 2023, published 2026):

Legend:
[1] = system: WT I17T MAPT mini-gene (exon 10 splicing); test: 4R/3R MAPT mRNA by RT-qPCR, HeLa cells transfected with WT I17T mini-gene; format: cell-based
Experimental: RNA Isolation and Real-Time Quantitative PCR (RT-qPCR). HeLa cells were treated as described in the Luciferase Reporter assay to Study Exon 10 Alternative Splicing. LAN5 cells were seeded in 12-well plates at 0.2×10^6 cells per well, treated with compound or ASO, and incubated for 48 h. Compound stocks prepared in DMSO and ASO stocks prepared in water were diluted in growth medium and added to cells. Total RNA was extracted from cells and analyzed via RT-qPCR to determine levels of 3R and 4R tau mRNA. In brief, the cells were washed with 1×DPBS and then lysed in the well using 300 μL of Lysis Buffer provided in a Quick-RNA MiniPrep kit (Zymo Research), which was used to extract total RNA per the manufacturer's protocol including the on-column DNase I digestion. The concentration of total RNA was measured by NanoDrop 2000 (Thermo Fisher Scientific). Only samples with OD260/OD280>1.8 were carried forward for analysis. Reverse transcription (RT) was carried out on 200 ng of total RNA using a qScript cDNA synthesis kit (QuantaBio) in a total volume of 10 μL according to the manufacturer's protocol. An Applied Biosystems QS5 384-well PCR system was used to complete qPCR reactions with Power SYBR Green Master Mix (Life Technologies), 600 nM each primer (Table S3), 20 ng of cDNA (1 μL of the RT reaction), in a total volume of 33 μL. Technical triplicates (10 μL each) were aliquoted into 384-well qPCR plates (Applied biosystems, 4483285). Subsequent qPCR analysis was performed using an Applied Biosystems QS5 384-well PCR system (software v.1.3.0). 4R/3R ratio were analyzed using ΔΔCt method using Equation 2: […]
where ΔCt 4R or ΔCt 3R is the difference between the Ct values for the 4R or 3R MAPT mRNA and a housekeeping gene (18S rRNA) in total RNA from cells.

WT SRE RNA = test: In vitro competitive Chem-CLIP (C-Chem-CLIP), WT SRE RNA; details: 3 at 1.5 μM, read-out: IC50, competition of the binding of 3
Experimental: (§1) In Vitro Chemical Cross-linking and Isolation by Pull Down (Chem-CLIP) and Competitive Chem-CLIP (C-Chem-CLIP). Growth medium [Dulbecco's modified eagle medium (DMEM; corning, 10-013-CM) with 1× Glutagro (corning)] and 10% (v/v) fetal bovine serum (FBS; Sigma, 12003C) was inactivated by heating at 95° C. for 15 min and slowly cooling to room temperature. Approximately 10,000 counts of 32P 5′-end labeled tau WT, DDPAC, WT+I17T, or DDPAC+I17T RNA were folded in 10 μL growth medium by heating at 65° C. for 5 min and slowly cooling to room temperature. Chem-CLIP probe 3 or negative control probe 4 was then added into the folded RNA in a total volume of 20 μL, and the mixtures were incubated at 37° C. for 1 h. For C-Chem-CLIP, dilutions of competing compound 2 were incubated with RNA for 30 min before adding 3. […]
(§2) The Chem-CLIP probe 3 or control probe 4 was then clicked to disulfide biotin azide (2 μL of 10 mM solution prepared in DMSO solution per sample; Click Chemistry Tools, catalog no. 1168-10). […] The radioactive signal from bound RNAs (on the beads) and unbound RNAs (in the wash buffer) was measured by using a Beckman Coulter LS6500 Liquid Scintillation Counter as Rbound and Runbound. Enrichment was calculated as the percentage of radiolabeled RNA captured by beads calculated as Rbound/(Rbound+Runbound).

DDPAC SRE RNA = test: In vitro competitive Chem-CLIP (C-Chem-CLIP), DDPAC SRE RNA; details: 3 at 1.5 μM, read-out: IC50, competition of the binding of 3
Experimental: as §1, §2

[2] = system: phosphorylated tau / NeuN positive neurons in cortex; test: Brain immunohistochemistry in htau mice (AT8, NeuN); format: in vivo, htau mouse; details: 100 mg/kg p.o. q.o.d.
Experimental: Brain Tissue Histology. Left brain hemispheres of htau mice were harvested for total RNA. Right brain hemispheres (unfrozen) of htau mice were stored in 10% neutral buffered formalin (VWR) for 48 h. Tissue processing, embedding, and sectioning were performed and generated by the Scripps Florida Histology Core. Briefly, tissue was embedded in paraffin using a Sakura Tissue-Tek VIP5 paraffin processor, sectioned at 4 μm, and then mounted on positively charged slides for further immunostaining. The slides were stained on a Leica BondMax Immunostaining platform with the following primary antibodies: AT8 (MN1020, Invitrogen; 1:100 dilution) and NeuN (MAB377B, Chemicon; 1:500 dilution). After the slides were washed three times with 1×DPBS, a DAB Substrate Kit (Vector Laboratories, Inc.) was used to detect the primary antibodies per the manufacturer's protocol. After staining was complete, the slides were dehydrated, cover-slipped with Cytoseal 60 (Thermo Scientific), and imaged with a Leica DMI3000 B upright fluorescent microscope using 20× or 60× objective. Quantification was performed in a blinded fashion using ImageJ in which positivity was identified as aggregates (purple staining of AT8 or brown staining of NeuN) with diameter over 20 μm and staining signal over 185 that were kept constant across all treatment groups.

IC50 (WT SRE RNA): ~2000 nM
IC50 (DDPAC SRE RNA): ~2000 nM
Compound: COc1cc(N)ncc1CCCN(C)CCCn1cnc2c3ccccc3n(C)c2c1=O [Compound 2, 3-(3-((3-(6-amino-4-methoxypyridin-3-yl)propyl)(methyl)amino)propyl)-5-methyl-3,5-dihydro-4H-pyrimido[5,4-b]indol-4-one]
PSI10 (PSI of MAPT exon 10) vs vehicle [1]: not WT I17T or DDPAC I17T mutant
change in 4R/3R ratio (not statistically significant) ([1]; 1 at 10 μM or 2 at 1.5 μM): < 16%
AT8 antibody immunoreactivity (phosphorylated tau) [2]: reduced antibody immunoreactivity throughout the cortex
NeuN (neuron viability) [2]: enhanced
